Entries after “also recorded” stand apart in the source; their conditions may differ. Read-outs that look alike come from different tables or passages of the source.
Columns and labels:
Jurkat cells = test: Cell viability assay (ATPlite), Jurkat; assay type: cell-based, human; conditions: Homo sapiens, Jurkat; class symbols; NA: not active under assay conditions
Experimental: This assay was used for the H2171 and MM1S cell data shown in Table 2, and for the Jurkat (an immortalized line of human T lymphocyte cells), Ly1 (OCI-Ly1 human non-Hodgkin lymphoma cell line), Ly4 (OCI-Ly4 human non-Hodgkin lymphoma cell line), H2172 (NCI-H2172 human non-small cell lung cancer cell line), and CA-46 (a human Burkitt's lymphoma cell line) cell data shown in Table 3 and FIG. 12. Cells were counted and adjusted to 60,000 cells/mL. Using a Biotek EL406, 50 μL of cells are media were distributed into 384 well white plates from Thermo. Immediately after plating, compound in DMSO was distributed to plates. For large plate sets, cells were returned to 37° C. incubator while not in use.
Compounds were added to plates using a 100 nL 384 well pin transfer manifold on a Janus workstation. Stocks were arrayed in 10 point quadruplicate dose response in DMSO stock in 384 well Greiner compound plates. After addition of compound, plates were incubated for three days in a 37° C. incubator.
Cell viability was read out using ATPlite from Perkin Elmer. Plates were removed from the incubator and brought to room temperature prior to use. Lyophilized powder was resuspended in lysis buffer and diluted 1:2 with DI water. 25 μL of this solution was added to each well using the Biotek liquid handler. Plates were sealed with adherent aluminum seals prior to vortexing and spinning down at 1000 g for 1 minute. Plates were incubated for 15 minutes at room temperature before signal was read on an Envision Plate Reader.

c-Myc/Max/Ebox DNA [1] = molecular target: T1, c-Myc/Max/Ebox DNA (Homo sapiens, UniProt P01106); test: c-Myc/Max/Ebox DNA AlphaScreen assay; assay type: binding; parameters: An exemplary assay uses full-length human c-Myc and Max proteins; his6 (cleaved yes); made in house
T1 sequence (P01106 16-454): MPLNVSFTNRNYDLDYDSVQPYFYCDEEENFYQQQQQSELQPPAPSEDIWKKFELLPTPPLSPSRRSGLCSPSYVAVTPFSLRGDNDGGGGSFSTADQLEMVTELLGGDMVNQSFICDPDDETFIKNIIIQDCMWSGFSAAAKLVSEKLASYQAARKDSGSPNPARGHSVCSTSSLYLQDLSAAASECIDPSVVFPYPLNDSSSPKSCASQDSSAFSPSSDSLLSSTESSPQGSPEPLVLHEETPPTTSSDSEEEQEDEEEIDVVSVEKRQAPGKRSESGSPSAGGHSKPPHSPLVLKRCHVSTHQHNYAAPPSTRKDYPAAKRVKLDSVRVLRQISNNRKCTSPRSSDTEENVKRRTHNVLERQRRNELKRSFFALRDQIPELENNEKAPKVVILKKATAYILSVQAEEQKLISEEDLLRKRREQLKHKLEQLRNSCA
Outline: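 Proximity read-out of Myc–Max–DNA complex formation in 50 mM HEPES pH 8.0 with 500 μM DTT. Compounds contact tag-free c-Myc (25 nM), Ebox oligo (10 nM) and acceptor beads first. His6-Max (1.25 nM) with donor beads follows, then 2 h incubation in low light with DMSO ≤2% v/v.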

Max/Max/Ebox DNA = Max/Max/Ebox DNA (Homo sapiens, UniProt P61244); test: Gelshift assay, Max/Max/Ebox DNA complex formation; assay type: binding; conditions: relative to DMSO at 2.5 µM (FIG. 9)
Max/Max/Ebox DNA, sequence (P61244 whole entry): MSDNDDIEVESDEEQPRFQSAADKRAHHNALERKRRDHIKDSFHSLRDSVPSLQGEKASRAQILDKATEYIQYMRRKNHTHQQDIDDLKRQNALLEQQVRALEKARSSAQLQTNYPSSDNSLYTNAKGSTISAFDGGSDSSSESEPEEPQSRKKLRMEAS
Experimental: (§1) Compounds tested at 2.5 μM for their inhibitory activity against c-Myc/Max/Ebox DNA, Max/Max/Ebox DNA and MITF/MITF/Ebox DNA complex formation using gelshift assays.
AlphaScreen hits can be validated using orthogonal biochemical assays such as a gelshift assay (also called an electrophoretic mobility shift assay) with purified components or cellular lysates. FIG. 5 (left) illustrates how the AlphaScreen hit 63 was validated using a gelshift assay with purified c-Myc, Max and Ebox DNA. […] Compounds and analogs were then examined for potency and selectivity against structurally similar transcription factor:DNA complexes, such as Max/Max/Ebox DNA and MITF/MITF/Ebox DNA. Data in FIG. 9 show how analogs can be tested for potency against structurally similar transcription factors and how medicinal chemistry optimization can drive potency and selectivity against different transcription factor:DNA complexes. […] The selectivity among structurally similar transcription factors can also provide insights into compound mechanism of action. […] Cellular assays can compliment the biochemical analyses to measure the cellular potency of compounds to induce cellular phenotypes expected as a result of loss of transcription factor function. This includes gene expression analysis, chromatin immunoprecipitation (ChIP) analysis, cellular proliferation analysis and cell state analysis. […]

c-Myc/Max/Ebox DNA [2] = molecular target: T1, c-Myc/Max/Ebox DNA; test: Gelshift assay, c-Myc/Max/Ebox DNA complex formation; assay type: binding
Experimental: FIG. 5 describes validation of Compound 63 activity using an orthogonal biochemical assay. […] Decreasing amounts of 63 was added to purified c-Myc, Max and biotinylated Ebox DNA. Biotinylated Ebox DNA complexed with protein (either c-Myc/Max or Max/Max) or free (bottom band) was assayed using a 6% retardation gel, transferred to a membrane and detected using straptavidin-HRP. […]
(§2) AlphaScreen hits can be validated using orthogonal biochemical assays such as a gelshift assay (also called an electrophoretic mobility shift assay) with purified components or cellular lysates. FIG. 5 (left) illustrates how the AlphaScreen hit 63 was validated using a gelshift assay with purified c-Myc, Max and Ebox DNA. […] Compounds and analogs were then examined for potency and selectivity against structurally similar transcription factor:DNA complexes, such as Max/Max/Ebox DNA and MITF/MITF/Ebox DNA. Data in FIG. 9 show how analogs can be tested for potency against structurally similar transcription factors and how medicinal chemistry optimization can drive potency and selectivity against different transcription factor:DNA complexes. […] The selectivity among structurally similar transcription factors can also provide insights into compound mechanism of action. […] Cellular assays can compliment the biochemical analyses to measure the cellular potency of compounds to induce cellular phenotypes expected as a result of loss of transcription factor function. This includes gene expression analysis, chromatin immunoprecipitation (ChIP) analysis, cellular proliferation analysis and cell state analysis. Gene expression analysis can be performed using qRT-PCR, Nanostring technology, microarray technology, or RNA-seq technology to study transcript changes following treatment with compound. ChIP analysis can be performed on the factor of interest to study if compound treatment alters its genomic occupancy. Cellular proliferation and cell state analysis can indicate if the compound alters cell cycle progression or cellular identity. Thus, the approach using biochemical and cellular assays with large chemical libraries or focused libraries of hits identified in high throughput screens can serve as a platform to develop inhibitors of transcription factor function.

MITF/MITF/Ebox DNA = molecular target: T2, MITF/MITF/Ebox DNA (Homo sapiens, UniProt O75030); test: Gelshift assay, MITF/MITF/Ebox DNA complex formation; assay type: binding; conditions: relative to DMSO at 2.5 µM (FIG. 9)
T2 sequence (O75030 1-526): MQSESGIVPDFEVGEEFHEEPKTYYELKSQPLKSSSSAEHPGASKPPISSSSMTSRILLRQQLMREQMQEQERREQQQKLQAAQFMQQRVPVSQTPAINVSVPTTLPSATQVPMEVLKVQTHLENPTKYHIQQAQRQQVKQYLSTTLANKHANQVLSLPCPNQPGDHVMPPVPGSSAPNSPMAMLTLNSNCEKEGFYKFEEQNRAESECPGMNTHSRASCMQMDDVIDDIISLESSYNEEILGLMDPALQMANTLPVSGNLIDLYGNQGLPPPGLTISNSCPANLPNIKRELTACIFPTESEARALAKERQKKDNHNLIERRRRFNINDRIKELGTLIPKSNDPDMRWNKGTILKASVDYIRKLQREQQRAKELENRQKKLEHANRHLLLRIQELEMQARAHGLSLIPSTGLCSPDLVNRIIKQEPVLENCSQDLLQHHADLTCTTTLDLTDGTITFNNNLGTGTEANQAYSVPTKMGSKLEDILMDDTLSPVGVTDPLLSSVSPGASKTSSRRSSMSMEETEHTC
Experimental: as §1, §2

c-Myc = molecular target: T3, c-Myc (Homo sapiens, UniProt P01106); test: c-Myc chromatin immunoprecipitation assay in H2171 cells; assay type: cell-based; conditions: 100 μM, 4 hours
T3 construct: c-Myc genomic occupancy in H2171 cells treated with DMSO, Compound 63 (100 μM) or CC34301 (100 μM); endogenous in cells; host or cells: H2171
T3 sequence (P01106 whole entry): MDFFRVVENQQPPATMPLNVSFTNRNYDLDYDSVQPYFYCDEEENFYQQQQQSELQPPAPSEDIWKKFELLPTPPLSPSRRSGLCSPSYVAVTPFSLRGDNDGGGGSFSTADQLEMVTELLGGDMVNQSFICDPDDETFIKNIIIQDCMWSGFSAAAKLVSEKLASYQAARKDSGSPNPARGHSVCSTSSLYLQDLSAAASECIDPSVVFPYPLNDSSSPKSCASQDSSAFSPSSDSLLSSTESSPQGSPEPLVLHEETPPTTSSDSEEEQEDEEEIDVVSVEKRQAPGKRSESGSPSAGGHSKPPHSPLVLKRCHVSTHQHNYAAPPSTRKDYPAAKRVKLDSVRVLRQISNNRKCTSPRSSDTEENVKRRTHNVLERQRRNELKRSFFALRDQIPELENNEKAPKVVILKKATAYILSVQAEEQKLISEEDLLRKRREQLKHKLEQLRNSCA
Experimental: FIG. 6 depicts a c-Myc chromatin immunoprecipitation assay to investigate c-Myc genomic occupancy in H2171 cells treated with DMSO, Compound 63 (100 μM) or CC34301 (100 μM) for 4 hours. Standard chromatin immunoprecipitation procedures were followed using an antibody specific to c-Myc (Santa Cruz, catalogue number sc-764). Quantitative PCR analysis was performed on four c-Myc binding sites (Npm1, Mat2a, Hnrnpa2b1, and Rp123a) and one non-binding site (Neg region) and normalized to a background region to determine the fold enrichment over background.

MM1S cells = test: Cell viability assay (ATPlite), MM1S; assay type: cell-based, human; conditions: for EC50: cell viability, three days, ATPlite, NA: inactive under assay conditions
Outline: (§3)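 Cells seeded at 60,000 cells/mL and dosed immediately by pin transfer in 10-point quadruplicate dose response from DMSO stocks. After three days at 37 °C, viability was read by ATPlite luminescence after 15 min at room temperature.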

H2171 cells = test: Cell viability assay (ATPlite), H2171; assay type: cell-based, human; conditions: for EC50: Homo sapiens, NCI-H2171, 72 h, cell viability, three days, ATPlite, NA: inactive under assay conditions
Outline: as §3

[3] = system: HL-60 promyelocytic leukemia cells; test: HL-60 differentiation (qRT-PCR, FACS); assay type: cell-based, human; conditions: HL-60 cells
Experimental: FIG. 7 depicts the assessment of on-target activity versus general toxicity. HL-60 promyelocytic leukemia cells express high levels of c-Myc to maintain a proliferative and undifferentiated cell state. Loss of c-Myc function results in loss of cellular proliferation and induction of cellular differentiation. HL-60 cells were treated with DMSO, 64 (12.5 μM or 25 μM), or 151 (25 μM) for four days.

protein:DNA complex = test: Comparative biochemical analyses of protein:DNA complex formation (FIG. 10); assay type: binding; conditions: FIG. 10, DNA intercalator comparison
[4] = class symbols, NA: not active under assay conditions, read-out: Myc/Max IC50
[5] = relative to DMSO at 2.5 mM (FIG. 9)
[6] = c-Myc/Max/Ebox DNA AlphaScreen, NA: inactive under assay conditions, read-out: Biochemical IC50

For `Cc1ccc(C)n1-c1cc(C(=O)N/N=C/c2cccc(C(=O)O)c2)ccc1C(=O)O` [Compound 101, (E)-4-(2-(3-carboxybenzylidene)hydrazinecarbonyl)-2-(2,5-dimethyl-1H-pyrrol-1-yl)benzoic acid], the EC50 (Jurkat cells) was 10 to 100 µM, the biochemical activity (c-Myc/Max/Ebox DNA [1]; FIG. 4) was “increased biochemical activity” and the IC50 (c-Myc/Max/Ebox DNA [1]; [4]) was 1 to 10 µM. The “Max/Max/Ebox DNA complex formation” value (Max/Max/Ebox DNA) was “potently disrupted”, the “c-Myc/Max/Ebox DNA complex formation” value (c-Myc/Max/Ebox DNA [2]; [5]) was “potently disrupted” and the “MITF/MITF/Ebox DNA complex formation” value (MITF/MITF/Ebox DNA) was “potently disrupted”.
`Cc1ccc(C)n1-c1ccccc1C(=O)O` [Compound 63, 2-(2,5-dimethylpyrrolyl)benzoic acid] was tested, and the Max genomic occupancy (c-Myc) was “largely unchanged”, the c-Myc protein levels (c-Myc) was “unchanged” and the “c-Myc occupancy at binding sites (Npm1, Mat2a, Hnrnpa2b1, Rp123a)” value (c-Myc; compared to DMSO or CC34301) was “reduced c-Myc occupancy”. For the same compound, the EC50 (MM1S cells) was 322 µM, the IC50 (c-Myc/Max/Ebox DNA [1]; [6]) was 24.2 µM and the “selectivity c-Myc/Max versus Max/Max” value (c-Myc/Max/Ebox DNA [2]; at tested doses (FIG. 5)) was “selectivity towards c-Myc/Max”. For the same compound, the “c-Myc/Max/Ebox DNA complex formation” value (c-Myc/Max/Ebox DNA [2]; decreasing amounts of compound (FIG. 5)) was “reduced c-Myc/Max/Ebox DNA complex formation in a dose-dependent manner; also recorded: inhibits c-Myc/Max/Ebox DNA complex formation (top band) in a dose dependent manner” and the EC50 (H2171 cells) was 96.9 µM.
In the case of `CC(=O)OCOC(=O)c1ccccc1-n1c(C)ccc1C` [Compound 64], the “expression of differentiation markers (qRT-PCR)” value ([3]; 12.5 μM or 25 μM, four days) is reported as “induces the expression of three differentiation markers (CD14, CD11c, and CCL4)”, the “differentiation marker CD11c (FACS)” value ([3]; 4 days) is reported as “express the differentiation marker CD11c” and the EC50 (Jurkat cells) is reported as 10 to 100 µM. For the same compound, the EC50 (MM1S cells; Homo sapiens, MM1.S, 72 h) was 52.3 µM, the “cellular activity/potency in cellular proliferation assay” value (MM1S cells; MM1.S, prodrug relative to free acid (FIG. 3, FIG. 4)) was “increased cellular activity” and the IC50 (c-Myc/Max/Ebox DNA [1]; [6]) was 155 µM. For the same compound, the IC50 (c-Myc/Max/Ebox DNA [1]; [4]) was ≥ 100 µM, the “cellular activity in cellular proliferation assay” value (H2171 cells; H2171, relative to free acid Compound 63 (FIG. 3)) was “increased cellular activity” and the EC50 (H2171 cells) was 29.9 µM.
For `Cc1ccc(C)n1-c1cc(C(=O)N/N=C/c2ccc(O)c(O)c2O)ccc1C(=O)O` [Compound 79], the IC50 (c-Myc/Max/Ebox DNA [1]; [6]) was 0.531 µM, the “c-Myc/Max/Ebox DNA complex formation” value (c-Myc/Max/Ebox DNA [2]; [5]) was “disrupted” and the “MITF/MITF/Ebox DNA complex formation” value (MITF/MITF/Ebox DNA) was “disrupted”.
`COc1cccc2c1C(=O)c1c(O)c3c(c(O)c1C2=O)C[C@@](O)(C(=O)CO)C[C@@H]3O[C@H]1C[C@H](N)[C@H](O)[C@H](C)O1` [doxorubicin] was tested, and the “protein:DNA complex formation” value (protein:DNA complex) was “non-specifically disrupts protein:DNA complex formation”.
